Laboratory results published in patent US20220152048A1, “Botanical Extracts and Compounds from Castanea Plants and Methods of Use” (Emory University, priority 2019, published 2022).
Values after ≈ are worked out from the molar mass of the structure shown.

How the values were obtained:
[1] = test system: S. aureus; assay: Growth (optical density) of S. aureus; assay type: cell-based, Staphylococcus aureus; conditions: at the IC50 concentration of 8 μg/mL
Description: (§1) Fractions were tested for quorum quenching activity against all four agr types agr P3-YFP reporter strains AH1677 (type I), AH430 (type II), AH1747 (type III), and AH1872 (type IV). Sample stock solutions were dissolved in DMSO at a concentration of 2 mg/mL. Overnight cultures of reporter strains that were grown in TSB supplemented with chloramphenicol (Cam) were inoculated into fresh TSB containing Cam to achieve a working culture OD of 0.0006. Working culture was added to 96-well microtiter plates (Costar 3603) as was sample in order to achieve a final well volume of 200 μL. Mock vehicle (DMSO) treatments were included for each reporter strain. Microtiter plates were incubated at 37° C. with shaking (1250 rpm) in a Stuart SI505 incubator (Bibby Scientific, Burlington, N.J.) with a humidified chamber. Fluorescence (top reading, 493 nm excitation, 535 nm emission, gain 60) and optical density (OD) readings at 600 nm were recorded at 18 h using a Tecan Systems (San Jose, Calif.) Infinite M200 plate reader.

[2] = test system: Staphylococcus aureus reporter strains of agr (types I-IV: AH1677, AH430, AH1747, AH1872); assay: Quorum quenching assay with agr P3-YFP reporter strains (fluorescence); assay type: cell-based; conditions: read-out: IC50 for inhibition of fluorescence across agr reporter strains
Text: Hydroperoxy-cycloartanes were isolated from the methanolic extract of the leaves of Castanea sativa, a substantial, long-lived deciduous tree that produces an edible seed, the chestnut. 224C-F2c-PF42-SF6 is a mixture of a cycloartane with a hydroperoxy group at the terminus of its alkyl chain and a carboxylic acid and methyl group replacing the gem-dimethyl group (1a) and a cycloartane with a terminal alkene and carboxylic acid in the S configuration at C24 (1b). 224C-F2c-PF42-SF7 is a cycloartane with a terminal alkene and carboxylic acid in the R configuration at C24 (2). […] The compounds 2 and SF6 were evaluated for the ability to inhibit fluorescence of Staphylococcus aureus reporter strains of agr, the main gene regulating quorum sensing. Additionally, 2 and SF6 were evaluated for cytotoxicity against human immortalized keratinocytes (HaCaT).
After eluting from the column, 224C-F2 was split into parts a-d. […] A screen against S. aureus reporter strains of AIP-induced agr:P3 activation representing all four agr subtypes functioned as a preliminary readout of quorum sensing inhibition and the bioassay which guided fractionation. […]

[3] = test system: Staphylococcus aureus reporter strain of agr I expression (AH1677); assay: agr I reporter strain AH1677 dose range (FIG. 3); assay type: cell-based; conditions: strain AH1677, fluorescence (FLD) of the gene reporter
Description: Strain AH1677 was treated with a range of doses of SF6, SF7, and a combination of the two. OD refers to growth, while FLD refers to fluorescence of the gene reporter. […] The combined effects of SF6 and SF7 are additive; a dose 4 μg/mL SF6+4 μg/mL SF7 has the same effect as an 8 μg/mL dose of either.
as §1

## C=C(C)[C@H](CC[C@H](C)[C@@H]1CC[C@]2(C)[C@H]3[C@H](O)C[C@@H]4[C@@](C)(C(=O)O)[C@H](O)CC[C@]45C[C@]35CC[C@@]12C)OO [Compound 2]
[1]
  growth inhibitory effects on S. aureus: no growth inhibitory effects
[2]
  IC50: 8 µg/mL (≈ 15.9 µM)
[3]
  activity in agr I reporter strain as compared to parent fraction and positive control 224C-F2c: slightly reduced
